Assays:
TPH1 = TPH1 (Mus musculus, UniProt P17532); conditions: WT mice fed a high fat diet; LP533401 100 mg/kg/day by gavage
Text: (§1) Mice were housed under 12:12 light:dark cycle and chow and water were provided ad libitum. All animals were maintained according to NIH guidelines. The Htr2bflox/flox, Tph1flox/flox, and Villin-cre mice have been described previously (1). Alb-cre and aP2-cre mice were obtained from the Jackson Laboratory. For glucose tolerance tests mice were fasted overnight before i.p. injection of 2 g/kg body weight (BW) d-glucose in phosphate buffered saline (PBS) or 1 g/kg BW when mice were fed high fat diet. For pyruvate tolerance tests, mice were fasted overnight, injected i.p. with 2 g/kg BW sodium pyruvate in PBS. Glycerol tolerance test (4 g/kg BW) was performed after 4 h fasting. For insulin tolerance tests, mice were injected with 0.75 U/kg of insulin after 4 h fasting. Glucose was measured by tail vein bleeds at the indicated intervals using an ACCU-CHECK® glucometer. Measurement of free fatty acids (FFA) and glycerol were performed in plasma using a serum triglycerides determination kit (TR0100, Sigma) and a NEFA-HR(2) kit (WAKO Diagnostics). Plasma concentration of serotonin and glucagon were determined by Glucagon ELISA (Alpco, 48-GLUHU-E01) and Serotonin (Research) ELISA, (IBL-America, IB89540). Hyperinsulinemic-euglycemic clamp was performed in the University of Massachusetts Mouse Phenotyping Center, University of Massachusetts Medical School. […]

WT mice [1] = test: Plasma levels of glycerol and FFA in mice; assay type: in vivo
Text: (§2) All animals were maintained according to NIH guidelines.

WT mice [2] = test: Insulin tolerance test; assay type: in vivo
Text: as §1

WT mice [3] = test: Glucose tolerance test; assay type: in vivo
Text: as §1

WT mice [4] = test: Pyruvate tolerance test (gluconeogenesis); assay type: in vivo
Text: as §1

[5] = reference 24 (Liu et al. 2008); cited from earlier work
epididymal fat pads = test: In vitro lipolysis of isolated fat pads; assay type: cell-based, mouse
Protocol: (§3) In vitro lipolysis assay was performed as described (4). Briefly, epididymal fat pads were isolated and washed several times in Hank's Balanced Salt Solution (HBSS) (Sigma). Tissue pieces (˜25 mg) were incubated in Dulbecco's Modified Eagle's Medium (DMEM) medium (Invitrogen) containing 2% fatty acid free bovine serum albumin (Sigma) at 37° C. for 1 h. After this preincubation, the fat explants were transferred into identical, fresh medium containing serotonin (Sigma) or 10 μM forskolin as a positive control and incubated further for the indicated time-points at 37° C. Afterwards, aliquots of medium were taken for measurements of FFAs and glycerol using available kits (NEFA-HR(2), WAKO Diagnostics; serum triglycerides determination kit, TR0100, Sigma) and tissue was lysed with RIPA buffer for subsequent Western blot analysis or in TRIZOL® (Invitrogen) for gene expression analysis.

[6] = Plasma serotonin concentration in mice implanted with serotonin-releasing pellets; assay type: in vivo; conditions: WT mice, subcutaneous serotonin releasing pellets
Text: as §2
This was done by implanting subcutaneously serotonin releasing pellets in WT mice. These pellets increased circulating levels of serotonin approximately two-fold (FIG. 5C).

WT mice [7] = test: Glycerol tolerance test in WT mice implanted with serotonin-releasing pellets; assay type: in vivo; conditions: WT mice implanted with serotonin pellets vs placebo controls
Text: as §2

[8] = test system: hormone sensitive lipase (HSL); test: Western blot of lipolytic enzymes in fat explants stimulated with serotonin; assay type: cell-based, mouse; conditions: 50 μM serotonin, Htr2b-dependent
Protocol: as §3
Western blotting was performed according to standard procedures. Frozen tissues or cells were homogenized and lysed with RIPA buffer. Membranes were blocked and then incubated overnight with primary antibody in TBST-5% BSA, followed by incubation with appropriate HRP-conjugated secondary antibody. Signals were visualized with ECL. […]

primary hepatocytes = test: In vitro glucose production in primary hepatocytes; assay type: cell-based, mouse; conditions: for conversion of glycerol to glucose in hepatocytes: primary hepatocytes, indicated doses of serotonin or 100 nM glucagon
Protocol: Production of glucose was assessed in primary, freshly isolated, attached hepatocytes. Briefly, cells were platted on 12 well plate format (200,000 cells per well). After isolation, the cells were allowed to attach and recover for 6 h in Williams E medium containing 10% fetal calf serum. Then they were washed and starved for 1 h in Dulbecco's Modified Eagle's DMEM without glucose and phenol red but with 2 mM L-glutamate and 0.5% BSA (D5030, Sigma). Then the cells were switched to the same medium or the same medium containing 10 mM glycerol and stimulated with the indicated substances for 6 h. Glucose concentration was determined in the medium using Amplex Red Glucose/Glucose Oxidase Assay Kit, (Invitrogen, A22189). Glucose production from glycerol was determined by subtracting glucose produced by the cells incubated without glycerol from this incubated with glycerol.

[9] = WT mice fed a high fat diet, fasted for 4 h, LP533401 100 mg/kg/day
[10] = WT mice fed a normal diet, compared with Tph1gutΔ/Δ mice
[11] = mice fed a high fat diet, LP533401 100 mg/kg/day
[12] = Htr2b-deficient fat pad explants, 50 μM serotonin or 1 μM isoproterenol
[13] = fed WT mice, subcutaneous serotonin releasing pellets
[14] = epididymal fat pads treated with increasing amounts of serotonin

TPH1, sequence (P17532 whole entry): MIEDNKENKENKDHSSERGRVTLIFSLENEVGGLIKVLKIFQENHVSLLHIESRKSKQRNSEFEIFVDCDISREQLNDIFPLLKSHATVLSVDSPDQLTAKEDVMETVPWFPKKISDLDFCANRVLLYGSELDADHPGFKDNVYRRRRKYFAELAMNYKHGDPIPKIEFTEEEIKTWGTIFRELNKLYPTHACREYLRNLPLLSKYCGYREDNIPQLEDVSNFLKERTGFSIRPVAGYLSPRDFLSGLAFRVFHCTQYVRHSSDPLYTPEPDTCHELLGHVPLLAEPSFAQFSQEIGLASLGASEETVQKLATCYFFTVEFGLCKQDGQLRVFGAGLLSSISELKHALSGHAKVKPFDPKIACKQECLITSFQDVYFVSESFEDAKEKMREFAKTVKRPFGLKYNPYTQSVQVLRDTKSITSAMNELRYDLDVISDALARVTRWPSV

Question: With `Nc1nc(OC(c2ccc(-c3cccc(F)c3)cc2)C(F)(F)F)cc(-c2ccc(C[C@H](N)C(=O)O)cc2)n1` (stereo partly drawn) [LP533401] as the compound, how does the “reduction of circulating serotonin levels” value (TPH1) read?
Answer: 80%

Question: What about the FFAs circulating levels (WT mice [1]; [9]) of the same compound?
Answer: normalization

Question: What about the glycerol circulating levels (WT mice [1]; [9]) of the same compound?
Answer: decrease

Question: And the FFA levels (WT mice [1]; WT mice fed a normal diet)?
Answer: decreased

Question: And the glycerol levels (WT mice [1]; WT mice fed a normal diet)?
Answer: decreased

Question: What about the insulin tolerance (WT mice [2]; [10]) of the same compound?
Answer: improved

Question: What about the insulin sensitivity (WT mice [2]; [11]) of the same compound?
Answer: normalized

Question: What about the glucose tolerance (WT mice [3]; [10]) of the same compound?
Answer: improved

Question: What about the glucose tolerance (WT mice [3]; [11]) of the same compound?
Answer: significantly improved

Question: What about the gluconeogenesis rate (WT mice [4]; WT mice fed a normal diet) of the same compound?
Answer: decreased

Question: And the gluconeogenesis (WT mice [4]; [11])?
Answer: significantly improved

Question: What about the “crossing of the blood-brain barrier” value [5] of the same compound?
Answer: does not cross efficiently the blood-brain barrier

Question: For `CC(C)NCC(O)c1ccc(O)c(O)c1` (stereo not drawn) [isoproterenol], which “release of FFAs” value (epididymal fat pads; [12]) is on record?
Answer: favored equally well

Question: And the release of glycerol (epididymal fat pads; [12])?
Answer: favored equally well

Question: What does the source list for `NCCc1c[nH]c2ccc(O)cc12` [serotonin, 5-hydroxytryptamine]?
Answer: lipolysis (WT mice [1]; WT mice implanted with serotonin pellets, fasted for 4 h): further enhanced; circulating levels of FFAs (WT mice [1]; [13]): significant increase; circulating levels of glycerol (WT mice [1]; [13]): significant increase; increase of circulating levels of serotonin [6]: approximately two-fold; blood glucose levels after glycerol (WT mice [7]): to a higher level than in controls; release of FFAs (epididymal fat pads; [12]): failed to enhance; release of glycerol (epididymal fat pads; [12]): failed to enhance; release of FFAs (epididymal fat pads; [14]): significantly increased; release of glycerol (epididymal fat pads; [14]): significantly increased; phosphorylation of hormone sensitive lipase (HSL) on serine residues 563 and 660 [8]: favored; glucose production from glycerol (primary hepatocytes; Htr2bΔ/Δ hepatocytes, 50 μM serotonin): could not induce; conversion of glycerol to glucose in hepatocytes (primary hepatocytes): stimulated

Question: Which “conversion of glycerol to glucose in hepatocytes” value (primary hepatocytes) does the source give for glucagon here?
Answer: stimulated
